Reference: patent EP3705478B1, “TRIAZINE COMPOUND AND PHARMACEUTICALLY ACCEPTABLE SALT THEREOF” (Shenzhen Forward Pharmaceuticals Co., Ltd., priority 2017, dated 2018)
Where two headings read alike, the source gives them in different places.

Experiments:
[1] = system: NCI-H1975 (L858R/T790M double mutant EGFR); assay: Test 3: Proliferation Test of L858R/T790M EGFR (double mutant) cells (Cell Titer-Glo); type: cell-based, human; settings: for IC50: Homo sapiens, NCI-H1975 cells, 72 hours; for Ratio of IC50 value of Test 2 to that of Test 3: selectivity: wild-type EGFR cells vs L858R/T790M EGFR (double mutant) cells
Experimental: (§1) NCI-H1975 cells are cultured in RPMI1640 medium containing 10% fetal bovine serum and 2 mM glutamine. Cells are grown in a humidified incubator with 5% CO2 at 37°C.
(§2) The number of viable cells in the culture is determined according to the protocol described in Cell Titer-Glo Luminescent cell Viability Assay (Promega catalog number: # G7570) of Promega company. 90 µl of cells (8000 cells/well) are cultured in growth medium in a Corning 96-well plate with black transparent bottom, culturing in a humidified incubator with 5% CO2 at 37°C overnight. The compound serially diluted in 100% DMSO is added to the cells by pipette, culturing the cells for another 72 hours. 100 µl of the mixed Cell Titer-Glo reagent is added to the cells in the 96-well culture plate to lyse the cells, mixing gently. Subsequently, the […] is detected on the Envision microplate detector to obtain data of the compound. Finally, the data is input into a suitable software package (such as Prism) for curve fitting analysis.

A431 (wild-type EGFR) = assay: Test 2: Proliferation Test of Wild-type EGFR Cells (Cell Titer-Glo); type: cell-based; settings: Homo sapiens, read-out: IC50 value, Test 2
Experimental: The human […] cell line A431 (wild-type EGFR) is obtained from the American Type Culture Collection. […] cells are cultured in RPMI1640 medium containing 10% fetal bovine serum and 2 mM glutamine. Cells are grown in a humidified incubator with 5% CO2 at 37°C.
as §2

[2] = system: Ba/F3-CAT-EGFR (wild-type EGFR) cells; assay: Test 4: Proliferation Test of BalF3-CAT-EGFR cells (Cell Titer-Glo); type: cell-based; settings: 72 hours
Text: (§3) BalF3-CAT-EGFR cell viability detection is based on the detection technology developed by CellTiter-Glo®. BalF3 cells are transformed by overexpressing the intracellular kinase region of wild-type EGFR to construct a CAT-EGFR tool cell strain. This cell strain lives depending on the kinase activity of EGFR, if the wild-type EGFR is inhibited by a small molecule compound, the cell strain will die. Therefore, the specificity and activity of EGFR small molecules on wild-type EGFR may be evaluated by observing the effect of EGFR small molecules on cell viability.
Ba/F3-CAT-EGFR (wild-type EGFR) cells are cultured in RPMI1640 medium containing 10% fetal bovine serum and 2 mM glutamine. Cells are grown in a humidified incubator with 5% CO2 at 37°C.
as §2, with “100” for “90”, “(3000” for “(8000”

[3] = system: BalF3-DTM-EGFR (mutant EGFR) cells; assay: Test 5: Proliferation Test of Ba/F3-DTM-EGFR cells (Cell Titer-Glo); type: cell-based; settings: for Inhibitory selectivity of the compound, Ratio of IC50 value of Test 4 to IC50 value of Test 5: Ba/F3-CAT-EGFR vs Ba/F3-DTM-EGFR cells; for IC50: Ba/F3-DTM-EGFR cells (T790M mutation and Exon19-deficient EGFR), 72 hours
Experimental: as §3, with “Ba/F3-DTM-EGFR” for “BalF3-CAT-EGFR”, “BalF3 cells are transformed by overexpressing the intracellular kinase region of wild-type EGFR to construct a CAT-EGFR tool cell strain.” left out, “mutant” for “wild-type”
BalF3-DTM-EGFR (mutant EGFR) cells are cultured in RPMI1640 medium containing 10% fetal bovine serum and 2 mM glutamine. Cells are grown in a humidified incubator with 5% CO2 at 37°C.
as §2, with “100” for “90”, “(3000” for “(8000”

[4] = molecular target: T1, L858R/T790M EGFR (double mutant) (Homo sapiens, UniProt P00533, L858R/T790M); assay: Test 1: Phosphorylation Test of L858R/T790M EGFR (double mutant) Cells (phospho-EGFR ELISA); type: cell-based; settings: NCI-H1975 cells, p-EGFR in cell lysate, compound incubation 2 hours
T1 construct: The detection of phosphorylated p-EGFR of endogenous cells in cell lysate; host or cells: NCI-H1975
T1 sequence (P00533 25-1210 T790M/L858R): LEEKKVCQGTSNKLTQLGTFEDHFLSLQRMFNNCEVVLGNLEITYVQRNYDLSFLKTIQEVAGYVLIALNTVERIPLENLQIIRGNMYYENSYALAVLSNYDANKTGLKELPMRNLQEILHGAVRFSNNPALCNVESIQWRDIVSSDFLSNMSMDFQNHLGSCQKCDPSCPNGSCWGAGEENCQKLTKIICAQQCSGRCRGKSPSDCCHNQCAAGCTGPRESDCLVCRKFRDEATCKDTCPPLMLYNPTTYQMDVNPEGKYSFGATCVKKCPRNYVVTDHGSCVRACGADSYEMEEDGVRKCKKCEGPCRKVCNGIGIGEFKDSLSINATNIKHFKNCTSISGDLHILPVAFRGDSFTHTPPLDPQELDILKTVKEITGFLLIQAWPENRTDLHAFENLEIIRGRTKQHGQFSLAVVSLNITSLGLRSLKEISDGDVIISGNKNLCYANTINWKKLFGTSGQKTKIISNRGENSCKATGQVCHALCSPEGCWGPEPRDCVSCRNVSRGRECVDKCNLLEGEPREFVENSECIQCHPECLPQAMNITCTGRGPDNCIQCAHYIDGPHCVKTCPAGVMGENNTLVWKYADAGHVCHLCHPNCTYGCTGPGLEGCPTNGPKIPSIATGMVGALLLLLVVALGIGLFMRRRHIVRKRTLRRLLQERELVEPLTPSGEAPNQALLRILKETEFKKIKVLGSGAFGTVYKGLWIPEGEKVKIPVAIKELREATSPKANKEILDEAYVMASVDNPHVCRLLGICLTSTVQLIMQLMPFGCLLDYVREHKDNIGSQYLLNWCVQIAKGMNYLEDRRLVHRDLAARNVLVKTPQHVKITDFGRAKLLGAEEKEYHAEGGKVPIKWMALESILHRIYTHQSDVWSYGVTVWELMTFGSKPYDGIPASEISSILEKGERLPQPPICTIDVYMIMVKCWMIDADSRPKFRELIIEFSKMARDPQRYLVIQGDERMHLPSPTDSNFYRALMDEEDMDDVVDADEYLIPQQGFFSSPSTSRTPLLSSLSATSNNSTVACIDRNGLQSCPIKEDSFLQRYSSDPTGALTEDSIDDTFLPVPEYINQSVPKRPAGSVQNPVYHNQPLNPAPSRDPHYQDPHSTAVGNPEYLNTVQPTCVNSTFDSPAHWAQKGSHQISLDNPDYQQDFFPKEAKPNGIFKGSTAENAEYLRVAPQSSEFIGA
Experimental: as §1
The detection of phosphorylated p-EGFR of endogenous cells in cell lysate is performed according to the protocol described in the DuoSet IC Human Phospho-EGFR ELISA (R&D Systems catalog number: # DYC1095) of R&D Systems Company. 90 µl of cells (8000 cells/well) are cultured in growth medium in a Corning 96-well plate with black transparent bottom, after culturing in a humidified incubator with 5% CO2 at 37°C overnight, the cell culture medium is replaced with RPMI1640 medium containing 1% fetal bovine serum and 2 mM glutamine to culture continuously. The compound serially diluted in 100% DMSO is added to the cells by pipette, and after gently mixing the medium, the cells are incubated for another 2 hours. 100 µl of 1X lysis buffer is added to each well. Greiner high-binding 96-well plates are coated with capture antibody, and then blocked with 3% BSA. After removing the blocking solution, 100 µl of lysate is transferred to a Greiner high-binding 96-well plate, then incubating for 2 hours. After gently mixing and washing the culture plate with PBS, 100 µl of detection antibody is added, then incubating for 2 hours. […] 100 µl of stop solution is added to the culture plate, and the absorbance of each well at 450 nm wavelength is measured. Finally, the data is input into a suitable software package (such as Prism) for curve fitting analysis.

[5] = Test 6: Test of Plasma Protein Binding Rate (equilibrium dialysis), human plasma; type: in vitro ADME; settings: equilibrium dialysis at 37°C for 4 hours, read-out: % Unbound of human plasma sample in Test 6
Experimental: (§4) The test of plasma protein binding rate is performed by using the 96-well equilibrium dialysis device from HTDialysis Company. The human plasma samples or mouse plasma samples with a concentration of 2 µM for the test and control compounds are performed equilibrium dialysis at 37°C for 4 hours so as to conduct the protein binding study. 150 µL of plasma sample with the test compound is added to the administration end of each dialysis well, and 150 µL of blank dialysis buffer is added to the receiving end corresponding to the dialysis well. The dialysis plate is then placed in a humidified incubator with 5% CO2 to incubate at 37°C for 4 hours. After dialysis, 50 µL of the dialyzed buffer sample and the dialyzed plasma sample are transferred to a new 96-well plate (sample receiving plate). The corresponding volume of corresponding blank plasma or buffer is added to the sample. All samples are analyzed by LC/MS/MS after protein precipitation. The concentration of the sample is expressed as the ratio of the peak area of the compound to the internal standard substance (semi-quantitative). Finally, the % Unbound, % Bound, and % Recovery of the compound are calculated according to the formula.

[6] = Test 6: Test of Plasma Protein Binding Rate (equilibrium dialysis), mouse plasma; type: in vitro ADME; settings: equilibrium dialysis at 37°C for 4 hours, read-out: % Unbound of mouse plasma sample in Test 6
Experimental: as §4

[7] = A-431, wild-type EGFR cells, 72 hours

Row | Structure (SMILES) | IC50 [1] | Ratio of IC50 value of Test 2 to that of Test 3 [1] | IC50 (A431 (wild-type EGFR); [7]) | IC50 [2] | Inhibitory selectivity of the compound, Ratio of IC50 value of Test 4 to IC50 value of Test 5 [3] | IC50 [3] | IC50 [4] | fraction unbound at 4 h, 2 µM [5] | fraction unbound at 4 h, 2 µM [6] | IC50 (A431 (wild-type EGFR); A-431, 72 h)
1 | C=CC(=O)Nc1cc(Nc2ncnc(-c3cnc4c(C)cccn34)n2)c(OC)cc1N(C)CCN(C)C [Compound 26, N-(2-((2-(dimethylamino)ethyl)(methyl)amino)-4-methoxy-5-((4-(8-methylimidazolo[1,2-a]pyridin-3-yl)-1,3,5-triazin-2-yl)amino)phenyl)acrylamide] | 4 nM | 179.5 | 718 nM | > 10000 nM | >2702.70 | 3.7 nM | 12.1 nM | – | – | –
2 | C=CC(=O)Nc1cc(Nc2ncnc(N3CC(C)(C)c4ncccc43)n2)c(OC)cc1N(C)CCN(C)C [Compound 11, N-(5-((4-(3,3-dimethyl-2,3-dihydro-1H-pyrrolo[3,2-b]pyridin-1-yl)-1,3,5-triazin-2-yl)amino)-2-((2-(dimethylamino)ethyl)(methyl)amino)-4-methoxyphenyl)acrylamide] | – | – | – | > 10000 nM | >2941.18 | 3.4 nM | 11.1 nM | 0.107 | 0.077 | –
3 | C=CC(=O)Nc1cc(Nc2ncnc(-n3nc(C)c4ccc(F)cc43)n2)c(OC)cc1N(C)CCN(C)C [Compound 20, N-(2-((2-(dimethylamino)ethyl)(methyl)amino)-5-((4-(6-fluoro-3-methyl-1H-indazol-1-yl)-1,3 ,5-triazin-2-yl)amino)-4-methoxyphenyl)acrylamide] | – | – | – | > 10000 nM | > 1851.85 | 5.4 nM | – | – | – | –
4 | C=CC(=O)Nc1cc(Nc2ncnc(-n3cc(C)c4cnccc43)n2)c(OC)cc1N(C)CCN(C)C [Compound 18, N-(2-((2-(dimethylamino)ethyl)(methyl)amino)-4-methoxy-5-((4-(3-methyl-1H-pyrrolo[3,2-c)pyridin-1-yl)-1,3,5-triazin-2-yl)amino)phenyl)acrylamide] | – | – | – | > 10000 nM | > 1923.08 | 5.2 nM | – | – | – | –
5 | C=CC(=O)Nc1cc(Nc2nccc(-c3cn(C)c4ccccc34)n2)c(OC)cc1N(C)CCN(C)C [Osimertinib (AZD9291), Osimertinib, reference compound] | […] | – | – | 3120 nM | – | 7.1 nM | – | 0.025 | 0.005 | […]
6 | C=CC(=O)Nc1cc(Nc2ncnc(-n3ccc4ncccc43)n2)c(OC)cc1N(C)CCN(C)C [Compound 6, N-(5-((4-(1H-pyrrolo[3,2-b]pyridin-1-yl)-1,3,5-triazin-2-yl)amino)-2-((2-(dimethylamino)ethyl)(methyl)amino)-4-methoxyphenyl)acrylamide] | 3 nM | 193 | 579 nM | – | – | – | 15.1 nM | – | – | –

Continued, in another order:

Row | IC50 [1] | Ratio of IC50 value of Test 2 to that of Test 3 [1] | IC50 (A431 (wild-type EGFR); [7]) | IC50 [2] | Inhibitory selectivity of the compound, Ratio of IC50 value of Test 4 to IC50 value of Test 5 [3] | IC50 [3] | IC50 [4] | Structure (SMILES) | fraction unbound at 4 h, 2 µM [5] | fraction unbound at 4 h, 2 µM [6] | IC50 (A431 (wild-type EGFR); A-431, 72 h)
7 | 4 nM | 235.3 | 941 nM | > 10000 nM | >2222.22 | 4.5 nM | 10.6 nM | C=CC(=O)Nc1cc(Nc2ncnc(-n3nc(F)c4ccccc43)n2)c(OC)cc1N(C)CCN(C)C [Compound 29, N-(2-((2-(dimethylamino)ethyl)(methyl)amino)-5-((4-(3-fluoro-1H-indazol-1-yl)-1,3,5-triazin-2-yl)amino)-4-methoxyphenyl)acrylamide] | – | – | –
8 | 5 nM | 176.6 | 883 nM | > 10000 nM | >3125.00 | 3.2 nM | 11.8 nM | C=CC(=O)Nc1cc(Nc2ncnc(-c3cnc4c(F)cccn34)n2)c(OC)cc1N(C)CCN(C)C [Compound 27, N-(2-((2-(dimethylamino)ethyl)(methyl)amino)-5-((4-(8-fluoroimidazolo[1,2-a]pyridin-3-yl)-1 ,3,5-triazin-2-yl)amino)-4-methoxyphenyl)acrylamide] | – | – | –
9 | 4 nM | 189.5 | 758 nM | > 10000 nM | >2500.00 | 4 nM | 11.4 nM | C=CC(=O)Nc1cc(Nc2ncnc(-c3cnc4c(C(F)(F)F)cccn34)n2)c(OC)cc1N(C)CCN(C)C [Compound 28, N-(2-((2-(dimethylamino)ethyl)(methyl)amino)-4-methoxy-5-((4-(8-(trifluoromethyl)imidazolo[1,2-a]pyridin-3-yl)-1,3,5-triazin-2-yl)amino)phenyl)acrylamide] | – | – | –
